According to ChEMBL document CHEMBL4270648, “Molecular design, synthesis and biological evaluation of cage compound-based inhibitors of hepatitis C virus p7 ion channels” (Eur J Med Chem, 2018):

Experiments:
[1] = Inhibition of p7 ion channel in BVDV VK-1 infected in calf heart cells assessed as reduction in viral growth by colorimetric method; assay type: cell-based, Bovine viral diarrhea virus 1; settings: Bovine viral diarrhea virus isolates and strains
[2] = Cytotoxicity against calf heart cells assessed as reduction in cell viability by colorimetric method; assay type: cell-based, Bos taurus; settings: cattle
[3] = Selectivity index, ratio of CC50 for calf heart cells to IC50 for BVDV VK-1 infected in calf heart cells; assay type: toxicity, cell-based; settings: cattle, read-out: Ratio CC50/IC50

CC(=O)NC(C)C12CC3CC(CC(C(=O)O)(C3)C1)C2 (centres undefined)
IC50 [1]: 28.9 µM | CC50 [2]: > 377 µM | selectivity ratio [3]: > 13.1

C[C@H](O)[C@H](N)C12CC3CC(CC(C3)C1)C2
IC50 [1]: 103 µM | CC50 [2]: > 407 µM | selectivity ratio [3]: > 4

CN(C)c1cc[n+](C23CC4CC(CC(C4)C2)C3)cc1
IC50 [1]: 24.4 µM | CC50 [2]: 199 µM | selectivity ratio [3]: 8.1

O=C1CCC(C23CC4CC(CC(C4)C2)C3)=NN1c1ccccc1
IC50 [1]: < 0.52 µM | CC50 [2]: 235 µM | selectivity ratio [3]: > 450

CSc1ncn(C2(c3ccccc3O)C3CC4CC(C3)CC2C4)n1 (centres undefined)
IC50 [1]: 22.9 µM | CC50 [2]: 119 µM | selectivity ratio [3]: 5.2

O=C(O)CC12CC3CC(O)(C1)CC(CC(=O)O)(C3)C2
IC50 [1]: 116 µM | CC50 [2]: > 373 µM | selectivity ratio [3]: > 3.2

CC1(c2ccccc2)CCCN(CCC23CC4CC(CC(C4)C2)C3)C1 (centres undefined)
IC50 [1]: 3.02 µM | CC50 [2]: 86.7 µM | selectivity ratio [3]: 28.7

O=S1(=O)OC23CC4CC(CC(C4)C2)C[C@H]3[C@@H]1CN1CCCCC1
IC50 [1]: 163 µM | CC50 [2]: > 295 µM | selectivity ratio [3]: > 1.8

c1ccc2[nH]cc(C34CC5CC(CC(C5)C3)C4)cc[nH]c2c1
IC50 [1]: 20.3 µM | CC50 [2]: 128 µM | selectivity ratio [3]: 6.3

CC12CC3(N)CC(CC(=O)O)(C1)CC(CC(=O)O)(C2)C3
IC50 [1]: 118 µM | CC50 [2]: > 315 µM | selectivity ratio [3]: > 2.7

C[C@@H]1N[C@H]1C12CC3CC(CC(C3)C1)C2
IC50 [1]: 76.7 µM | CC50 [2]: 105 µM | selectivity ratio [3]: 1.4

O=c1ccn(C23CC4CC(CC(C4)C2)C3)cc1
IC50 [1]: 35.3 µM | CC50 [2]: 158 µM | selectivity ratio [3]: 4.5

c1ccc2nc3c(nc2c1)C1CC2CC(C1)CC3C2
IC50 [1]: 7.87 µM | CC50 [2]: > 400 µM | selectivity ratio [3]: > 50.8

O=C(C[n+]1cccc2ccccc21)C12CC3CC(CC(C3)C1)C2
IC50 [1]: 15.2 µM | CC50 [2]: 133 µM | selectivity ratio [3]: 8.7

Cc1cccc[n+]1CCC12CC3CC(CC(C3)C1)C2
IC50 [1]: 9.3 µM | CC50 [2]: 297 µM | selectivity ratio [3]: 32

CCC1CC2CC3CC(C2)CC1(O)C3 (centres undefined)
IC50 [1]: 4.24 µM | CC50 [2]: 403 µM | selectivity ratio [3]: 95.2

Oc1noc2c1C1CC3CC(CC2C3)C1
IC50 [1]: 5.94 µM | CC50 [2]: > 487 µM | selectivity ratio [3]: > 82

CC(=O)NCC12CC3CC(C1)CC(CC(=O)O)(C3)C2
IC50 [1]: 181 µM | CC50 [2]: > 377 µM | selectivity ratio [3]: > 2.1

CC1(c2ccccc2)CCN(CCC23CC4CC(CC(C4)C2)C3)CC1
IC50 [1]: 2.82 µM | CC50 [2]: 90.7 µM | selectivity ratio [3]: 32.1

Oc1ccccc1C1(n2cncn2)C2CC3CC(C2)CC1C3 (centres undefined)
IC50 [1]: 5.99 µM | CC50 [2]: > 339 µM | selectivity ratio [3]: > 56.5

O/N=C1\C(=N\O)C2CC3CC(CC1C3)C2
IC50 [1]: 3.38 µM | CC50 [2]: 480 µM | selectivity ratio [3]: 142

O=c1cc[nH]cc1C12CC3CC(CC(C3)C1)C2
IC50 [1]: 12.9 µM | CC50 [2]: > 436 µM | selectivity ratio [3]: > 33.9

CC1=CCCN(CC(O)C23CC4CC(CC(C4)C2)C3)C1 (centres undefined)
IC50 [1]: 25.2 µM | CC50 [2]: 190 µM | selectivity ratio [3]: 7.5

O=C(C[n+]1ccccc1)C12CC3CC(CC(C3)C1)C2
IC50 [1]: 75.9 µM | CC50 [2]: > 297 µM | selectivity ratio [3]: > 3.9

O=C(O)CC12CC3(O)CC(CC(=O)O)(C1)CC(C(=O)O)(C3)C2
IC50 [1]: 282 µM | CC50 [2]: > 320 µM | selectivity ratio [3]: > 1.1

O=c1ccc(C23CC4CC(CC(C4)C2)C3)n[nH]1
IC50 [1]: 20 µM | CC50 [2]: > 434 µM | selectivity ratio [3]: > 21.8

c1ccc2c[n+](CCC34CC5CC(CC(C5)C3)C4)ccc2c1
IC50 [1]: 56.6 µM | CC50 [2]: 83 µM | selectivity ratio [3]: 1.5

c1ccc2c(c1)Oc1ncnn1C21C2CC3CC(C2)CC1C3 (centres undefined)
IC50 [1]: 6.23 µM | CC50 [2]: > 341 µM | selectivity ratio [3]: > 54.7

O=c1[nH]cc(C23CC4CC(CC(C4)C2)C3)cc1C12CC3CC(CC(C3)C1)C2
IC50 [1]: 2.56 µM | CC50 [2]: > 275 µM | selectivity ratio [3]: > 107

c1cc(OC23CC4CC(CC(C4)C2)C3)ccn1
IC50 [1]: 37.4 µM | CC50 [2]: 290 µM | selectivity ratio [3]: 7.8

O=C(NCc1ccccc1)C1C(=O)C2CC3CC(C2)CC1C3 (centres undefined)
IC50 [1]: 66.6 µM | CC50 [2]: > 336 µM | selectivity ratio [3]: > 5.1

O/N=C1/CC2CC3CC(C2)CC1C3
IC50 [1]: 7.21 µM | CC50 [2]: 148 µM | selectivity ratio [3]: 20.6

O=S1(=O)OC23CC4CC(CC(C4)C2)C[C@H]3[C@@H]1CN1CCOCC1
IC50 [1]: 62.1 µM | CC50 [2]: > 293 µM | selectivity ratio [3]: > 4.7

N#CC(C#N)=C(/C=C/N1CCOCC1)C12CC3CC(CC(C3)C1)C2
IC50 [1]: 86.4 µM | CC50 [2]: > 309 µM | selectivity ratio [3]: > 3.6

O=S1(=O)OC23CC4CC(CC(C4)C2)C[C@H]3[C@@H]1CNCc1ccccc1
IC50 [1]: 56.5 µM | CC50 [2]: 96 µM | selectivity ratio [3]: 1.7

NCC12CC3CC(C1)CC(CC(=O)O)(C3)C2
IC50 [1]: 382 µM | CC50 [2]: > 385 µM | selectivity ratio [3]: > 1

Cc1cccc[n+]1CC(=O)C12CC3CC(CC(C3)C1)C2
IC50 [1]: 78.8 µM | CC50 [2]: > 285 µM | selectivity ratio [3]: > 3.6

OC(CN1CCCc2ccccc21)C12CC3CC(CC(C3)C1)C2 (centres undefined)
IC50 [1]: 213 µM | CC50 [2]: > 321 µM | selectivity ratio [3]: > 1.5

O=c1[nH][nH]c2c1C1CC3CC(CC2C3)C1
IC50 [1]: 39.7 µM | CC50 [2]: > 485 µM | selectivity ratio [3]: > 12.2

CC1=NC(C)(C23CC4CC(CC(C4)C2)C3)CO1 (centres undefined)
IC50 [1]: 33.4 µM | CC50 [2]: 168 µM | selectivity ratio [3]: 5

CC(O)(CNC(=O)C(F)(F)F)C12CC3CC(CC(C3)C1)C2 (centres undefined)
IC50 [1]: 75.4 µM | CC50 [2]: 259 µM | selectivity ratio [3]: 3.4

CN(C)C1=NC2(c3ccccc3O1)C1CC3CC(C1)CC2C3 (centres undefined)
IC50 [1]: 70.9 µM | CC50 [2]: 72.1 µM | selectivity ratio [3]: 1

CC(=C(C#N)C#N)C12CC3CC(CC(C3)C1)C2
IC50 [1]: 25.9 µM | CC50 [2]: 106 µM | selectivity ratio [3]: 4.1

C1CN[C@H]2C3CC4CC(CC(C4)[C@H]2N1)C3
IC50 [1]: 1.69 µM | CC50 [2]: > 358 µM | selectivity ratio [3]: > 211

C1C2CC3CC1CC(C2)c1nc2c(nc13)C1CC3CC(C1)CC2C3
IC50 [1]: 102 µM | CC50 [2]: > 312 µM | selectivity ratio [3]: > 3.1

O=C1/C(=N/O)C2CC3CC(CC1C3)C2
IC50 [1]: 177 µM | CC50 [2]: > 518 µM | selectivity ratio [3]: > 2.9

O=C(O)C(Br)C12CC3CC(CC(O)(C3)C1)C2 (centres undefined)
IC50 [1]: 193 µM | CC50 [2]: > 346 µM | selectivity ratio [3]: > 1.8

C=C(COc1ccccc1C(=O)OCC)C12CC3CC(CC(C3)C1)C2
IC50 [1]: 4.57 µM | CC50 [2]: 35.8 µM | selectivity ratio [3]: 7.8

CCN(CC)C[C@H]1O[C@@H]1C12CC3CC(CC(C3)C1)C2 (relative stereo)
IC50 [1]: 39.5 µM | CC50 [2]: 90.4 µM | selectivity ratio [3]: 2.3

O=C([C@@H]([C@H](C[N+](=O)[O-])c1ccccc1)S(=O)(=O)c1ccccc1)C12CC3CC(CC(C3)C1)C2 (relative stereo)
IC50 [1]: 1.89 µM | CC50 [2]: > 215 µM | selectivity ratio [3]: > 114

C1CN(C[C@H]2O[C@@H]2C23CC4CC(CC(C4)C2)C3)CCO1 (relative stereo)
IC50 [1]: 164 µM | CC50 [2]: 271 µM | selectivity ratio [3]: 1.7

CCN(CC)C[C@H](Cl)[C@H](O)C12CC3CC(CC(C3)C1)C2 (relative stereo)
IC50 [1]: 13.4 µM | CC50 [2]: 274 µM | selectivity ratio [3]: 20.5

COP(=O)(OC)[C@@H](C(=O)C12CC3CC(CC(C3)C1)C2)[C@H](C[N+](=O)[O-])c1ccccc1 (relative stereo)
IC50 [1]: 10.6 µM | CC50 [2]: > 230 µM | selectivity ratio [3]: > 21.7
